In PMC7413254 (Nature Communications, 2020):
Values joined by “and” are separate entries in the source; they are usually repeats but may differ in a detail not shown here. Equal entries are not always repeated. Where two headings read alike, the source gives them in different places.

Experiments:
[1] = target: T1, PfCRT^Ecu1110 (Plasmodium falciparum, UniProt Q9N623, A220S/I356L/K76T/N326D); experiment: cell-based; assay type: cell-based; conditions: […]
How it was run: (§1)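 Oocytes (ten per treatment, ≥4 independent frogs/days) were preloaded by injecting VF-6 in 25 nL ND96 at pH 5.0, 5.5, 6.0 or 7.0, or Na^+-free choline buffer, then uptake run 1.5 h, 27.5 °C, ND96 pH 5.5 by default. Internal concentrations assumed ~400 nL oocyte volume.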

[2] = target: T2, PfCRT^Dd2 (Plasmodium falciparum, UniProt Q9N623, A220S/I356T/K76T/M74I/N326S/N75E/Q271E/R371I); experiment: cell-based; assay type: cell-based; conditions: […]; for activity at 45000 µM: [test solute]i = 45 mM (30 mM for some solutes due to solubility)
How it was run: as §1

[3] = target: T3, PfCRT^3D7 (Plasmodium falciparum, UniProt Q8IBZ9); experiment: cell-based; assay type: cell-based
How it was run: as §1

[4] = target: T4, PfNT1 (Plasmodium falciparum, UniProt Q8IDM6); experiment: cell-based; assay type: cell-based; conditions: […]
T4 construct: expressed in transfected cells; host or cells: Xenopus laevis oocytes (stage V-VI), cRNA-injected
How it was run: as §1

[5] = test system: PfCRT; experiment: Potential co-substrates tested for influx of VF-6 via PfCRT into the oocyte; assay type: cell-based, Plasmodium falciparum; parameters: key: X: Compounds that have been tested as potential co-substrates but are not required for influx of VF-6 via PfCRT into the oocyte
[6] = test system: non-expressing oocytes; experiment: cells; assay type: cell-based, Xenopus laevis; conditions: Xenopus laevis, Oocyte
How it was run: (§2)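 Each treatment used ten oocytes, repeated in at least four experiments on different days with oocytes from different frogs. Conditions: ND96 pH 5.5, 27.5 °C, 1.5 h; read-out by scintillation counting.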

[7] = target: T1, PfCRT^Ecu1110; experiment: [3H]CQ uptake into Xenopus oocytes, cis-inhibition by unlabelled solute; assay type: cell-based
How it was run: as §2

[8] = target: T2, PfCRT^Dd2; experiment: as above; assay type: cell-based
How it was run: as §2

[9] = target: T3, PfCRT^3D7; experiment: cell-based; assay type: cell-based; remark: listed apart in the source
How it was run: as §2

[10] = test system: non-expressing oocytes; assay type: cell-based, Xenopus laevis
How it was run: as §1

[11] = test system: PfCRT; experiment: Influx of VF-6 via PfCRT into the oocyte, solutes tested as potential co-substrates; assay type: cell-based, Plasmodium falciparum; parameters: key: X: Compounds that have been tested as potential co-substrates but are not required for influx of VF-6 via PfCRT into the oocyte; conditions: X marks the solute
[12] = read-out: PfCRT-mediated [3H]CQ transport, trans-stimulation (% PfCRT3D7 control)
[13] = read-out: Uptake of [3H]CQ (% PfCRT3D7 control), trans-stimulation
[14] = read-out: Uptake of [3H]CQ (% PfCRTDd2 control), trans-stimulation, PfCRT3D7, SEM
[15] = read-out: Uptake of [3H]CQ (% PfCRTDd2 control), trans-stimulation, PfNT1, SEM
[16] = read-out: Uptake of [3H]CQ (% PfNT1 control), trans-stimulation
[17] = read-out: Uptake of [3H]CQ (% PfCRTDd2 control), cis-inhibition, non-expressing oocytes, SEM
[18] = read-out: Uptake of [3H]CQ (% non-expressing oocyte control), cis-inhibition
[19] = read-out: PfCRT-mediated [3H]CQ transport, cis-inhibition (% PfCRTEcu1110 control)
[20] = read-out: Uptake of [3H]CQ (% PfCRTDd2 control), cis-inhibition, PfCRTEcu1110, SEM
[21] = read-out: Uptake of [3H]CQ (% PfCRTEcu1110 control), cis-inhibition
[22] = read-out: [3H]CQ transport (% PfCRTEcu1110 control), cis-inhibition, PfCRTEcu1110, SEM
[23] = read-out: PfCRT-mediated [3H]CQ transport, cis-inhibition (% PfCRTDd2 control)
[24] = read-out: Uptake of [3H]CQ (% PfCRTDd2 control), cis-inhibition, PfCRTDd2, SEM
[25] = read-out: Uptake of [3H]CQ (% PfCRT3D7 control), cis-inhibition
[26] = read-out: Uptake of [3H]CQ (% PfCRTDd2 control), cis-inhibition, PfCRT3D7, SEM

T3 sequence (Q8IBZ9 59-398): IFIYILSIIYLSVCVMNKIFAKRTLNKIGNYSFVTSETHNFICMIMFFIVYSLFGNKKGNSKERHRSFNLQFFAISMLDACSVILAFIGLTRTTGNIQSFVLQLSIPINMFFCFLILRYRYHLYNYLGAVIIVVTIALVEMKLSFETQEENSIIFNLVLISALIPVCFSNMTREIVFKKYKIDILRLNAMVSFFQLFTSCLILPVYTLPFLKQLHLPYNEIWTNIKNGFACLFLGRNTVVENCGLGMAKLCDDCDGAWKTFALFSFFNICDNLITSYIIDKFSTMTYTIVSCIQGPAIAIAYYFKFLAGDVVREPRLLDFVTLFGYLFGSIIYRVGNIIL
T4 sequence (Q8IDM6 whole entry): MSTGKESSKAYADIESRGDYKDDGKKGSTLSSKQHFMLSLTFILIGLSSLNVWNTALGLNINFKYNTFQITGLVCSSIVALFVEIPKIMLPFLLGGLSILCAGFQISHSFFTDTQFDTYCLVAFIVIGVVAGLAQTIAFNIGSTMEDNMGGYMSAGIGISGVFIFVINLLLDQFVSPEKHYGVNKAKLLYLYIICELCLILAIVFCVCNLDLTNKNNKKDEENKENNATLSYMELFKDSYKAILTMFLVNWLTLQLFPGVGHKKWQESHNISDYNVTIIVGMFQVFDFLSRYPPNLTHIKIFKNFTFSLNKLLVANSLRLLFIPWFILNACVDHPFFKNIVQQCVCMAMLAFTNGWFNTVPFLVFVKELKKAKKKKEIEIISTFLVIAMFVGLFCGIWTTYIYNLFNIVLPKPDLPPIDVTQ
T2 sequence (Q9N623 whole entry A220S/I356T/K76T/M74I/N326S/N75E/Q271E/R371I): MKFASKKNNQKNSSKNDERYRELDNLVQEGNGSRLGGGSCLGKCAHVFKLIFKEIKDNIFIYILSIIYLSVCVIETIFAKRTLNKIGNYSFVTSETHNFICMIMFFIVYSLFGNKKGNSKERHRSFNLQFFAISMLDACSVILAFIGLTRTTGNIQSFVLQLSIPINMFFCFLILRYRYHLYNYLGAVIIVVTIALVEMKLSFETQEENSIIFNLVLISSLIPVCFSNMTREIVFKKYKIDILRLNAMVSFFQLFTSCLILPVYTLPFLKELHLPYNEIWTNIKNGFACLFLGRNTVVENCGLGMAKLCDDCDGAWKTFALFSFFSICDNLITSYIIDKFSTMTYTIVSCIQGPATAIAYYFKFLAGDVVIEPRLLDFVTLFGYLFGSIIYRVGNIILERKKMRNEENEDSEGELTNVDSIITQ
T1 sequence (Q9N623 whole entry A220S/I356L/K76T/N326D): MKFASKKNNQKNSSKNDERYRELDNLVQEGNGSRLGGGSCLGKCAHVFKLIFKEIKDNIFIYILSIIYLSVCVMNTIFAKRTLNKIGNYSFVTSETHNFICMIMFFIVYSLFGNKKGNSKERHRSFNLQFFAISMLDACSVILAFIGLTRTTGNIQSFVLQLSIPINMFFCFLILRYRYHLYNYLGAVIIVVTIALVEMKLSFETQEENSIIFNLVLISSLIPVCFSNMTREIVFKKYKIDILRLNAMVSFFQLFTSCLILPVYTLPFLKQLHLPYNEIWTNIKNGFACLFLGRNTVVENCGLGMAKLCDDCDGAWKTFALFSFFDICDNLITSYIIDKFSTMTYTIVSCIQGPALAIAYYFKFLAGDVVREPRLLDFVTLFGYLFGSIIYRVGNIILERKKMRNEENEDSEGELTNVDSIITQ

Compound: N[C@@H](Cc1ccc(O)cc1)C(=O)O [L-tyrosine]
- activity at 5000 µM ([1]; pH 5.5, read-out: PfCRT-mediated [3H]CQ transport, trans-stimulation (% PfCRTEcu1110 control), [test solute]i = 5 mM (intracellular), PfCRTEcu1110 oocytes, normalised to oocyte type control): 97 ± 1.8%
- activity at 5000 µM ([1]; pH 5.5, read-out: Uptake of [3H]CQ (% PfCRTEcu1110 control), trans-stimulation, PfCRTEcu1110 oocytes, [test solute]i = 5 mM, total [3H]CQ transport, normalised to the oocyte type control): 99 ± 2.6%
- activity at 45000 µM ([1]; pH 5.5, read-out: Uptake of [3H]CQ (% PfCRTEcu1110 control), trans-stimulation, PfCRTEcu1110 oocytes, [test solute]i = 45 mM (30 mM for some solutes due to solubility), total [3H]CQ transport, normalised to the oocyte type control): 100 ± 3.1%
- activity at 5000 µM ([1]; read-out: Uptake of [3H]CQ (% PfCRTDd2 control), trans-stimulation, PfCRTEcu1110, total [3H]CQ transport, [test solute]i = 5 mM (intracellular), mean ± SEM, SEM): 35 ± 2.1%
- activity at 45000 µM ([1]; read-out: Uptake of [3H]CQ (% PfCRTDd2 control), trans-stimulation, PfCRTEcu1110, total [3H]CQ transport, [test solute]i = 45 mM (intracellular; 30 mM for some solutes due to solubility), mean ± SEM, SEM): 36 ± 1.8%
- activity at 5000 µM ([2]; pH 5.5, read-out: PfCRT-mediated [3H]CQ transport, trans-stimulation (% PfCRTDd2 control), [test solute]i = 5 mM (intracellular), PfCRTDd2 oocytes, normalised to oocyte type control): 99 ± 2.6%
- activity at 5000 µM ([2]; pH 5.5, read-out: Uptake of [3H]CQ (% PfCRTDd2 control), trans-stimulation, PfCRTDd2, total [3H]CQ transport, [test solute]i = 5 mM (intracellular), mean ± SEM, SEM): 101 ± 3.3%
- activity at 5000 µM ([2]; pH 5.5, read-out: Uptake of [3H]CQ (% PfCRTDd2 control), trans-stimulation, PfCRTDd2 oocytes, [test solute]i = 5 mM, total [3H]CQ transport, normalised to the oocyte type control): 101 ± 3.3%
- activity at 45000 µM ([2]; pH 5.5, read-out: Uptake of [3H]CQ (% PfCRTDd2 control), trans-stimulation, PfCRTDd2 oocytes, total [3H]CQ transport, normalised to the oocyte type control): 96 ± 2.4%
- activity at 5000 µM ([2]; pH 5.5, read-out: [3H]CQ transport (% PfCRTDd2 control), trans-stimulation, PfCRTDd2, trans-stimulation, [test solute]i = 5 mM (injected), PfCRT-mediated component (background subtracted), mean ± SEM, SEM): 99 ± 2.6%
- activity at 45000 µM ([2]; pH 5.5, read-out: [3H]CQ transport (% PfCRTDd2 control), trans-stimulation, PfCRTDd2, trans-stimulation, PfCRT-mediated component (background subtracted), mean ± SEM, SEM): 94 ± 3.3%
- [3H]CQ transport (% PfCRT3D7 control), trans-stimulation, PfCRT3D7 ([3]; SEM): 0.3 ± 0.04 % PfCRT3D7 control
- activity at 5000 µM [3, 12]: 97 ± 3.4%
- activity at 45000 µM [3, 12]: 98 ± 2.2%
- activity at 5000 µM [3, 13]: 99 ± 2.2%
- activity at 45000 µM [3, 13]: 100 ± 2.4%
- activity at 5000 µM [3, 14]: 3.3 ± 0.04%
- activity at 45000 µM [3, 14]: 3.3 ± 0.01%
- activity at 5000 µM [4, 15]: 2.2 ± 0.02%
- activity at 45000 µM [4, 15]: 2.2 ± 0.02%
- activity at 5000 µM [4, 16]: 100 ± 3.7%
- activity at 45000 µM [4, 16]: 99 ± 2.2%
- Tested as potential co-substrate but not required for influx of VF-6 via PfCRT into the oocyte [5]: X
- inhibition at 500 µM [6, 17]: 2.5 ± 0.03%
- inhibition at 1000 µM [6, 17]: 4.2 ± 0.03%
- inhibition at 2000 µM [6, 17]: 2.9 ± 0.04%
- inhibition at 500 µM [6, 18]: 96 ± 4.2%
- inhibition at 1000 µM [6, 18]: 99 ± 5.3%
- inhibition at 2000 µM [6, 18]: 101 ± 3.9%
- inhibition at 500 µM [7, 19]: 96 ± 5.3%
- inhibition at 2000 µM [7, 19]: 95 ± 3.4%
- inhibition at 500 µM [7, 20]: 32 ± 1%
- inhibition at 1000 µM [7, 20]: 32 ± 1.1%
- inhibition at 2000 µM [7, 20]: 32 ± 1.7%
- inhibition at 500 µM [7, 21]: 99 ± 1.4%
- inhibition at 1000 µM [7, 21]: 101 ± 1.4%
- inhibition at 2000 µM [7, 21]: 97 ± 1.5%
- inhibition at 500 µM [7, 22]: 29 ± 0.7%
- inhibition at 1000 µM [7, 22]: 29 ± 1.5%
- inhibition at 2000 µM [7, 22]: 29 ± 0.5%
- inhibition at 500 µM [8, 23]: 94 ± 4.6%
- inhibition at 2000 µM [8, 23]: 97 ± 3.5%
- inhibition at 500 µM [8, 24]: 96 ± 3.2%
- inhibition at 1000 µM [8, 24]: 98 ± 2.3%
- inhibition at 2000 µM [8, 24]: 99 ± 1.4%
- inhibition at 500 µM [9, 25]: 99 ± 4.7%
- inhibition at 1000 µM [9, 25]: 101 ± 3.8%
- inhibition at 2000 µM [9, 25]: 99 ± 4.7%
- inhibition at 500 µM [9, 26]: 2.8 ± 0.07%
- inhibition at 1000 µM [9, 26]: 2.5 ± 0.04%
- inhibition at 2000 µM [9, 26]: 3.1 ± 0.03%
- Uptake of [3H]CQ (% non-expressing oocyte control), trans-stimulation [10]: 99 ± 3.3 % non-expressing oocyte control and 98 ± 4.2 % non-expressing oocyte control
- Uptake of [3H]CQ (% PfCRTDd2 control), trans-stimulation, non-expressing oocytes ([10]; SEM): 2.4 ± 0.01 % PfCRTDd2 control and 2.5 ± 0.01 % PfCRTDd2 control
- Compounds that have been tested as potential co-substrates but are not required for influx of VF-6 via PfCRT into the oocyte [11]: X
